Target: S6MTHFR (Sphingobium sp. SYK-6, UniProt G2IQS8)
Test: X-ray crystal structure of CH3-THF complex, […] Å
Format: binding
Conditions: FAD bound as purified; pH 4.5

Sequence of S6MTHFR (G2IQS8 2-288): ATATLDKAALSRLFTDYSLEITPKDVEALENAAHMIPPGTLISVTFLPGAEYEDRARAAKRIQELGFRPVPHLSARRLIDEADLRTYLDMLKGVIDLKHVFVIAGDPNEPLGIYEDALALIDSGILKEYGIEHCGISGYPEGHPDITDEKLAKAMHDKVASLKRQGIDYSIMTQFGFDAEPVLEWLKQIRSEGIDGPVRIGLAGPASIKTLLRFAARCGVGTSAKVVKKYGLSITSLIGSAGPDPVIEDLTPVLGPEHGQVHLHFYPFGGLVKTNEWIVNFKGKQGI

## Cc1cc2nc3c(=O)[nH]c(=O)nc-3n(C[C@H](O)[C@H](O)[C@H](O)COP(=O)(O)OP(=O)(O)OC[C@H]3O[C@@H](n4cnc5c(N)ncnc54)[C@H](O)[C@@H]3O)c2cc1C [FAD]
  X-ray crystal structure of CH3-THF complex, 1.85 Å: FAD and the experimentally observed part of the CH3-THF molecule are shown by stick models

— publication PMC11868366 (Communications Biology, 2025)
